Article PMC6724046 (Viruses, 2019)
Where a name gives a salt, the structure may show the parent alone. Read-outs that look alike come from different tables or passages of the source.

What was measured:
[1] = tested on: CPV SD6 (New CPV-2a strain); assay: CPE-based antiviral inhibitor screening assay; assay type: cell-based, Canine parvovirus; settings: for Percentage CPE inhibition (mean ± s.d.) / anti-CPV effect on F81 cells: 10 μM; for Percentage CPE inhibition (mean ± s.d.): cells treated with drug 1 hour prior to virus infection, MOI 0.076, 40 h postinfection; for anti-CPV effect on F81 cells: CPE-based screening assay
[2] = tested on: F81 cells; assay: Caspase-Glo 3/7 assay in F81 cells with or without CPV infection; assay type: cell-based, Feline; settings: 10 μM, with or without CPV infection, 4, 8, 12 and 24 hpi
[3] = tested on: CPV variant SD3 (New CPV-2b strain); assay: Western blot of VP2 expression, variant SD3; assay type: cell-based, Canine parvovirus; settings: 10 μM, SD3, 40 hpi, normalized to 0.1% DMSO-treated group
[4] = tested on: CPV; assay: Time of addition study (percentage CPE inhibition); assay type: cell-based, Canine parvovirus; settings: 10 μM; for Percentage CPE inhibition (mean ± s.d.): drug added 1 hour post virus infection, 40 h postinfection
[5] = tested on: CPV SD6; assay: Absolute quantitative PCR of CPV VP2 gene copies in infected F81 cells; assay type: cell-based, Canine parvovirus; settings: 10 μM, 1 mL whole cell lysates, 40 hpi
[6] = tested on: CPV; assay: 50% antiviral efficacy concentration (EC50) assay, CPE-based; assay type: cell-based, Canine parvovirus; settings: F81 cells pretreated 1 h, CPV MOI 0.076, 40 h
[7] = tested on: CPV variant BJ-1 (New CPV-2a strain); assay: Western blot of VP2 expression, variant BJ-1; assay type: cell-based, Canine parvovirus; settings: 10 μM, BJ-1, 40 hpi, normalized to 0.1% DMSO-treated group
[8] = tested on: CPV; assay: Immunofluorescence assay (IFA) for VP2 protein in infected F81 cells; assay type: cell-based, Canine parvovirus; settings: about 30 hpi
[9] = tested on: CPV variant SD6 (New CPV-2a strain); assay: Western blot of VP2 expression, variant SD6; assay type: cell-based, Canine parvovirus; settings: 10 μM, SD6, 40 hpi, normalized to 0.1% DMSO-treated group
[10] = tested on: F81 cells; assay: 50% cytotoxicity concentration (CC50) assay; assay type: cell-based, Feline
[11] = 50% cytotoxicity concentration (CC50) assay; assay type: cell-based, Feline; settings: cat
[12] = tested on: CPV enteritis; set-up: method as in earlier work; settings: Oseltamivir-treated group; cited from earlier work
[13] = F81 cells, 40 h incubation, read-out: CC50

With `Cc1cc(C(C#N)c2ccc(Cl)cc2)c(Cl)cc1NC(=O)c1cc(I)cc(I)c1[O-].[Na+]` (stereo not drawn) [Closantel Sodium] as the molecule, how does the “Percentage CPE inhibition (mean ± s.d.)” value [1] read?
Its value is 69.76 ± 6.06%.

What about the “pro- or antiapoptotic effect (Caspase 3/7 activity)” value [2] of the same molecule?
Its value is “no pro- or antiapoptotic effects”.

What about the “relative expression of VP2” value [3] of the same molecule?
Its value is 23.85%.

What about the “Percentage CPE inhibition (mean ± s.d.)” value [4] of the same molecule?
The value was 58.14 ± 7.28%.

And the “CPV viral DNA copy numbers compared with the 0.1% DMSO-treated group” value [5]?
The value was 24.04%.

What about the EC50 [6] of the same molecule?
The EC50 was 6.01 µM.

What about the “relative expression of VP2” value [7] of the same molecule?
The value was 12.83%.

And the “CPV infection by IFA (VP2 staining)” value ([8]; 5 μM)?
Its value is “CPV infection could be inhibited”.

What about the “CPV infection by IFA (VP2 staining)” value ([8]; 10 μM) of the same molecule?
Its value is “Few cells were CPV-positive”.

And the “CPV infection by IFA (VP2 staining)” value ([8]; 20 μM)?
Its value is “Almost no green signals were detected”.

What about the “relative expression of VP2” value [9] of the same molecule?
The value was 22.50%.

What about the CC50 [10] of the same molecule?
The CC50 was 19.1 µM.

What does the source list for `CC(=O)Oc1ccccc1C(=O)Nc1ncc([N+](=O)[O-])s1` [Nitazoxanide]?
pro- or antiapoptotic effect (Caspase 3/7 activity) [2]: antiapoptotic effects were observed within 12 h; anti-CPV activity by time of drug addition ([4]; drug added 3 h postinfection): anti-CPV activity of Nitazoxanide was observed; CPV viral DNA copy numbers compared with the 0.1% DMSO-treated group [5]: 0.07%; EC50 ([6]; Canine parvovirus): 2.71 µM; CPV infection by IFA (VP2 staining) ([8]; 5 μM): CPV infection could be inhibited; CPV infection by IFA (VP2 staining) ([8]; 10 μM): Few cells were CPV-positive; CPV infection by IFA (VP2 staining) ([8]; 20 μM): Almost no green signals were detected; CC50 at 40 h [11, 13]: 21 µM

Which results are given for `Nc1nc2[nH]cc(CCc3ccc(C(=O)N[C@@H](CCC(=O)[O-])C(=O)[O-])cc3)c2c(=O)[nH]1.Nc1nc2[nH]cc(CCc3ccc(C(=O)N[C@@H](CCC(=O)[O-])C(=O)[O-])cc3)c2c(=O)[nH]1.O.O.O.O.O.[Na+].[Na+].[Na+].[Na+]` [Pemetrexed Disodium Hydrate]?
Percentage CPE inhibition (mean ± s.d.) [1]: 26.56 ± 2.12%; Percentage CPE inhibition (mean ± s.d.) [4]: 30.28 ± 5.74%

What does the source list for `Nc1ccn([C@@H]2O[C@H](CO)[C@@H](O)C2(F)F)c(=O)n1` [Gemcitabine HCl]?
EC50 ([6]; Canine parvovirus): 0.68 µM; CC50 [10, 13]: 142 µM

For `Cc1cc(C(C#N)c2ccc(Cl)cc2)c(Cl)cc1NC(=O)c1cc(I)cc(I)c1O` (stereo not drawn) [Closantel], which “pro- or antiapoptotic effect (Caspase 3/7 activity)” value [2] is on record?
Its value is “no pro- or antiapoptotic effects”.

And the “relative expression of VP2” value [3]?
The value was 10.78%.

What about the “CPV viral DNA copy numbers compared with the 0.1% DMSO-treated group” value [5] of the same molecule?
Its value is 20.83%.

And the EC50 ([6]; Canine parvovirus)?
Its EC50 is 7.77 µM.

And the “relative expression of VP2” value [7]?
Its value is 14.58%.

What about the “CPV infection by IFA (VP2 staining)” value ([8]; 5 μM) of the same molecule?
The value was “CPV infection could be inhibited”.

And the “CPV infection by IFA (VP2 staining)” value ([8]; 10 μM)?
Its value is “Few cells were CPV-positive”.

And the “CPV infection by IFA (VP2 staining)” value ([8]; 20 μM)?
Its value is “Almost no green signals were detected”.

And the “relative expression of VP2” value [9]?
Its value is 30.1%.

What about the CC50 at 40 h [11] of the same molecule?
Its CC50 at 40 h is 13.7 µM.

With `Nc1ccn(C[C@@H](CO)OCP(=O)(O)O)c(=O)n1` [Cidofovir] as the molecule, how does the “anti-CPV effect on F81 cells” value [1] read?
Its value is “no anti-CPV effects”.

With `Nc1ccn([C@@H]2O[C@H](CO)[C@@H](O)C2(F)F)c(=O)n1` [Gemcitabine] as the molecule, how does the “Percentage CPE inhibition (mean ± s.d.)” value [4] read?
The value was 42.8 ± 6.13%.

And the EC50 [6]?
Its EC50 is 0.62 µM.

What about the CC50 [10, 13] of the same molecule?
The CC50 was 40 µM.

Which results are given for `Nc1nc(Cl)nc2c1ncn2[C@H]1C[C@H](O)[C@@H](CO)O1` [Cladribine]?
EC50 ([6]; Canine parvovirus): 0.32 µM; CC50 at 40 h ([11]; CC50): 40.2 µM

With `O=c1[nH]c(=O)n([C@H]2C[C@H](O)[C@@H](CO)O2)cc1C(F)(F)F` [Trifluridine] as the molecule, how does the EC50 ([6]; Canine parvovirus) read?
Its EC50 is 9.35 µM.

And the CC50 at 40 h [11]?
Its CC50 at 40 h is over 160 µM.

For `CN1CCC(=C2c3ccccc3CCc3sccc32)CC1.O=C(O)CC(O)C(=O)O` [Pizotifen Malate], which “Percentage CPE inhibition (mean ± s.d.)” value [1] is on record?
The value was 29.2 ± 2.72%.

And the “Percentage CPE inhibition (mean ± s.d.)” value [4]?
The value was 26.48 ± 2.91%.

With `CCOC(=O)C1=C[C@@H](OC(CC)CC)[C@H](NC(C)=O)[C@@H](N)C1` [Oseltamivir] as the molecule, how does the “anti-CPV effect on F81 cells” value [1] read?
Its value is “no anti-CPV effects”.

What about the inhibition at 10 µM ([1]; Canine parvovirus, read-out: Percentage CPE inhibition (mean ± s.d.)) of the same molecule?
Its inhibition at 10 µM is 2.13 ± 2.41%.

What about the “weight versus control group” value [12] of the same molecule?
Its value is “significant increase of weight”.

And the “white blood cell (WBC) count versus control group” value [12]?
Its value is “no changes”.
